Among the data in ChEMBL document CHEMBL3414500, “New polycyclic dual inhibitors of the wild type and the V27A mutant M2 channel of the influenza A virus with unexpected binding mode” (Eur J Med Chem, 2015) are IC50 values, retold here.

This experiment deals with Matrix protein 2 (Influenza A virus (A/Udorn/307/1972(H3N2)), UniProt P0DOF8, V27A).
The IC50 is the point on the concentration scale where inhibition reaches its midpoint. A higher IC50 goes with weaker potency in that assay. As for `C1=C[C@H]2[C@H]3[C@H]4[C@@H]1[C@@H]1[C@H]2[C@@H]2[C@H]3[C@@H]3CNC[C@@H]3[C@H]4[C@H]12`, the IC50 turned out to be 185 µM.
Then `C1C[C@H]2[C@H]3[C@H]4[C@@H]1[C@@H]1[C@H]2[C@@H]2[C@H]3[C@@H]3CNC[C@@H]3[C@H]4[C@H]12`, with 17.2 µM; and `N=C(N)N1C[C@@H]2[C@H](C1)[C@@H]1[C@@H]3[C@H]4CC[C@H]5[C@@H]3[C@H]2[C@H]2[C@@H]5[C@@H]4[C@@H]12`, with 32.2 µM.
